This is an account of results in patent EP0445062A1, “4(1H)Quinolone derivatives” (LABORATORIOS ALMIRALL SA, priority 1990, dated 1991).

The conditions of data set [1]: Chemical Abstracts Vol. 71, 113122 a (1969); cited from earlier work.
The conditions of data set [2]: J. Het. Chem. 23, 1801 (1986); cited from earlier work.
Data set [3] relates to Guinea-pig isolated tracheal rings. In words: Guinea-pig isolated tracheal rings (spontaneous tone), relaxation. Details: species or system guinea-pigs. Conditions: Cavia porcellus, concentration producing 50% relaxation, isoprenaline 10^-6 M response = 100%, read-out: TRACHEAL RING EC50. How it is done: Guinea-pig isolated tracheal rings (spontaneaus tone)
Male guinea-pigs (400-500 g) were killed, and their tracheae were removed and cut into pairs of rings. The rings were then mounted in organ baths containing Krebs-Henseleit solution at 37°C and oxygenated with […] under 1 g resting tension (Allen et al., Br.J.Pharmacol.(1986),89,395). After a 1 hour stabilization period, responses to isoprenaline 10⁻⁶ M were obtained. Tissues were then washed and after a period for restabilization (20 min) the effects of test drugs and flosequinan were investigated by adding cumulative concentrations of these to the baths.
Responses were measured as the percentage of the relaxation response to isoprenaline 10⁻⁶ M. The concentration producing a 50% relaxation taking isoprenaline responses as 100% (EC₅₀) was calculated.

Data set [4] deals with Guinea-pig isolated right ventricular strips. In words: Guinea-pig isolated right ventricular strips, increase in developed tension. Also on record: species or system guinea-pigs. Particulars: Cavia porcellus, stimulated at 1 Hz; for activation at 10 µM: percentage increase in developed tension at 10^-5 M, read-out: VENTRICULAR STRIP % at 10-5 M; for activation at 1 µM: percentage increase in developed tension at 10^-6M, read-out: VENTRICULAR STRIP % (10-6M). The procedure: Guinea-pig isolated right ventricular strips
Male guinea-pigs of weight 400-500 g were killed, their hearts were removed and 2 ventricular preparations (ca 1 cm x 1 mm) cut from the right bide. There were then mounted in organ baths containing modified Krebs-Henseleit solution at 37°C and continually aereated with […]. The preparations were placed under 1 g resting tension and electrically stimulated to contract at 1 Hz whilst force of contraction was measured using an isometric force transducer (Gristwood and Owen, Br.J.Pharmacol. (1985),87,91P). Preparations were equilibrated for 60 min during which they were washed every 15 min with fresh buffer. Flosequinan and test compounds were added to the organ baths from 10^-6 to 10^-4 M concentrations and responses measured as percentage increases in developed tension.

In data set [5] the test system is Conscious renal hypertensive beagle dogs. As to the kind of experiment: Conscious renal hypertensive beagle dogs, fall in mean blood pressure after oral dosing. In kind it is in vivo. Particulars: oral by gavage; for CONSC.HYPERT. DOG AUC (0-4h) (1 mg/kg): 1 mg/kg po; for CONSC.HYPERT. DOG AUC (0-4h) at mg/kg po: dose not given. How it is done: Conscious renal hypertensive beagle dogs
Male beagle dogs were made hypertensive by the method of Page (J.Amer.Med.Assoc.(1939),113,2046). Two months later, these animals were prepared with exteriorized carotid loops (Gristwood et al., Br.J.Pharmacol. (1988),93,893) three weeks before using for experimentation. Animals were fasted 17 hours before administration of flosequinan or test compounds orally. Animals were then placed in restraints and allowed to settle for 1 hour. Mean blood pressure (MBP) was measured by puncturing the carotid loop with a 18G needle attached to a pressure transducer. Drugs (suspended in 1% methylcellulose + 0.05% Tween 80) were given orally by gavage at different doses, and mean blood pressure was measured over 4 hours using a polygraph. Drug responses were measured by calculating the area under the curve of percentage fall in mean blood pressure and time (units= % fall in MBP x hours) (Allen et al., J.Clin.Pharmacol.(1982),1S-23S).

Another data set has as its system anaesthetized rats. In words: Vasodilator activity in anaesthetized rats (fall in mean blood pressure). Format: in vivo, Wistar rats. Conditions: Rattus norvegicus, iv; dose producing 30% fall in mean blood pressure; i.v. bolus injection; read-out: MAN BP IN THE ANAESTH. RAT ED30. How it is done:
Vasodilator activity in anaesthetized rats
Male Wistar rats of weight range 300-400 g were anaesthetized with pentobarbital (60 mg/kg i.p.). The trachea was canulated to permit artificial respiration. A carotid artery and a jugular vein were cannulated to permit recording of mean arterial blood pressure and i.v. administration of drugs respectively.
Following a period of stabilisation (20 min), flosequinan or test drugs were administered by bolus injection and falls in mean blood pressure recorded. Responses were measured as the percentage fall in blood pressure over control, calculating the dose that produced an effect of 30% (ED₃₀).

The next data set concerns male Swiss mice. In words: Acute toxicity in mice. In kind it is in vivo. Particulars: intraperitoneal, deaths after 48 hours, doses up to 300 mg/kg. The procedure:
Acute toxicity of each compound was determined in groups of 5 male Swiss mice per dose. Administration of flosequinan and test compounds was made by the intraperitoneal route up the dose of 300 mg/kg. After 48 hours the number of deaths was noted and the dose producing 100% of deaths (LD₁₀₀) was calculated.

Regarding `Cn1cc(N)c(=O)c2ccccc21` [1-methyl-3-amino-4(1H)quinolone], in data set [1], the pharmacological activities result is on record as “no appreciable pharmacological activities”.

As to `CCn1cc(NS(C)(=O)=O)c(=O)c2cc(F)c(Cl)cc21` [A], in data set [2], the antibacterial activity result was “does not exhibit any interesting antibacterial activity”.

The EC50 is the concentration that produces a half-maximal response. With `Cn1cc(NS(C)(=O)=O)c(=O)c2ccccc21` [Compound 1, 1-methyl-3-methylsulfonamido-4(1H) quinolone], in data set [3], the EC50 was 0.24 µM. In addition, the activation at 10 µM in data set [4] came to 82%. In addition, the “CONSC.HYPERT. DOG AUC (0-4h) (1 mg/kg)” value in data set [5] is 54 (1 mg/kg) % fall in MBP x hours. The ED30 in the data set on anaesthetized rats came to 0.02 mg/kg. Also, the “LD100 IN MICE” value with male Swiss mice is recorded as >300 mg/kg ip.

Consider `Cn1cc(NS(C)(=O)=O)c(=O)c2cc(F)ccc21` [Compound 3, 1-methyl-3-methylsulfonylamino-6-fluoro-4(1H)quinolone], for which the EC50 in data set [3] is 0.6 µM. Also, the activation at 10 µM in data set [4] was 53%. For the same compound, the “CONSC.HYPERT. DOG AUC (0-4h) (1 mg/kg)” value in data set [5] was 51 (1 mg/kg) % fall in MBP x hours. Further, in the data set with anaesthetized rats, the ED30 was 0.06 mg/kg. For the same compound, in the data set with male Swiss mice, the “LD100 IN MICE” value is >300 mg/kg ip.

For the compound `Cn1cc(NS(C)(=O)=O)c(=O)c2ccc(Cl)cc21` [Compound 4, 1-methyl-3-methylsulfonylamino-7-chloro-4(1H)quinolone], in data set [3], the EC50 was determined as 0.5 µM. Further, the activation at 1 µM in data set [4] amounted to 55%. Besides, the “CONSC.HYPERT. DOG AUC (0-4h) at mg/kg po” value in data set [5] is 68 % fall in MBP x hours. For the same compound, the ED30 in the data set on anaesthetized rats stood at 0.01 mg/kg. Further, the “LD100 IN MICE” value in the data set on male Swiss mice was >300 mg/kg ip.

On to `Cn1cc(NS(C)(=O)=O)c(=O)c2ccc(C(F)(F)F)cc21` [Compound 5], for which, in data set [3], the EC50 was 0.42 µM. Further, in data set [4], the activation at 1 µM was 35%. Further, the ED30 in the data set on anaesthetized rats worked out at 0.03 mg/kg. Besides, the “LD100 IN MICE” value in the data set on male Swiss mice is reported as >300 mg/kg ip.

Turning to `Cn1cc(NS(C)(=O)=O)c(=O)c2ccc(F)cc21` [Compound 6, 1-methyl-3-methylsulfonylamino-7-fluoro-4(1H)quinolone], the EC50 in data set [3] came out at 0.36 µM. Moreover, in data set [4], the activation at 10 µM came to 86%. In addition, the “CONSC.HYPERT. DOG AUC (0-4h) at mg/kg po” value in data set [5] came out at 65 % fall in MBP x hours. In addition, in the data set on anaesthetized rats, the ED30 was found to be 0.01 mg/kg. In addition, the “LD100 IN MICE” value with male Swiss mice is given as >300 mg/kg ip.

As to `COc1ccc2c(c1)c(=O)c(NS(C)(=O)=O)cn2C` [Compound 11], in data set [3], the EC50 is 1.6 µM. Besides, the activation at 10 µM in data set [4] was 52%. The ED30 with anaesthetized rats came out at 0.05 mg/kg. Besides, the “LD100 IN MICE” value in the data set on male Swiss mice is recorded as >300 mg/kg ip.

On to `Cn1cc([S+](C)[O-])c(=O)c2ccc(F)cc21` (centres unmarked) [FLOSEQUINAN, 7-fluoro-1-methyl-3-methylsulfinyl-4(1H)quinolone, reference compound], for which the EC50 in data set [3] turned out to be 3 µM. Moreover, the activation at 100 µM in data set [4] (percentage increase in developed tension at 10^-4M, read-out: VENTRICULAR STRIP % (10-4M)) came out at 75%. For the same compound, the “CONSC.HYPERT. DOG AUC (0-4h) at mg/kg po” value in data set [5] amounted to 41 % fall in MBP x hours. For the same compound, in the data set with anaesthetized rats, the ED30 amounted to 0.2 mg/kg. Moreover, the “LD100 IN MICE” value in the data set on male Swiss mice came out at 300 mg/kg ip.
